Test results published in patent publication US8247211B2, “Glycopeptide antibiotics” (American Cyanamid Company, priority 2001, dated 2012).
≈ marks a conversion by molar mass, not a printed value. Numbered stars: 1 amine (or outer) side, 2 acyl side, 3 side chain; on linkers, the order of the positions; unused ones are H or OH. Square brackets hold non-standard residues; d marks the D form. Peptide text beside a SMILES is read from it. ξ: configuration not given here. X6 = N=C1NCC(CC(N[*:1])C(=O)[*:2])N1C1OC(CO)C(O)C(O)C1O; Tyr(3-NO2) = N[CH](Cc1ccc(O)c([N+](=O)[O-])c1)C(=O)O; X7 = N=C1NCC(CC(N[*:1])C(=O)[*:2])N1; ξPhe(βξ-Me) = CC(c1ccccc1)C(N)C(=O)O

Legend:
Assay in all cases: In vitro antibacterial evaluation: minimum inhibitory concentration (MIC), broth dilution method
Assay type in all cases: cell-based
Conditions in all cases: broth dilution, 18 hours at 35° C.
[1] = system: Enterococcus sp.
Summary of the method: (§1)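 Test strains, among them recent clinical isolates carrying methicillin, penicillin and/or vancomycin resistance, were inoculated at 5×10^5 CFU/mL. A broth dilution series spanning 64-0.06 μg/mL in Muller-Hinton II […] (NCCLS M7-A2) defined the MIC as the lowest growth-inhibiting concentration.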

[2] = system: Streptococcus sp.
Summary of the method: as §1

[3] = system: Escherichia coli
[4] = system: Staphylococcus sp.
Summary of the method: as §1

Compound: CC(c1ccccc1)C1NC(=O)CNC(=O)C(CO)NC(=O)C(CC2CNC(=N)N2C2OC(CO)C(O)C(O)C2O)NC(=O)C(CC2CNC(=N)N2)NC(=O)C(Cc2ccc(O)c([N+](=O)[O-])c2)NC1=O (stereo not drawn) [Example 10, Cyclo[3-(2-iminoimidazolidin-4-yl)alanyl-3-(3-hexopyranosyl-2-iminoimidazolidin-4-yl)-alanylserylglycyl-β-methylphenylalanyl-3-nitrotyrosyl]] (cyclo(G[ξPhe(βξ-Me)][Tyr(3-NO2)][X7][X6]S); configuration not given here)
- MIC Enterococcus avium (GC 4558) [1]: >64 µg/mL
- MIC Enterococcus faecalis (ATCC 29212) [1]: >64 µg/mL
- MIC Enterococcus faecalis (GC 2242) [1]: >64 µg/mL
- MIC Enterococcus faecalis (GC 2691) [1]: >64 µg/mL
- MIC Enterococcus faecalis (GC 3059) [1]: >64 µg/mL
- MIC Enterococcus faecalis (GC 4552) [1]: >64 µg/mL
- MIC Enterococcus faecalis (GC 4553) [1]: >64 µg/mL
- MIC Enterococcus faecalis (GC 4554) [1]: >64 µg/mL
- MIC Enterococcus faecalis (GC 6189) [1]: >64 µg/mL
- MIC Enterococcus faecium (GC 2243) [1]: >64 µg/mL
- MIC Enterococcus faecium (GC 4556) [1]: >64 µg/mL
- MIC Enterococcus faecium (GC 4557) [1]: >64 µg/mL
- MIC Streptococcus agalactiae (GC 4564) [2]: >64 µg/mL
- MIC Streptococcus pneumoniae (ATCC 6301) [2]: >64 µg/mL
- MIC Streptococcus pneumoniae (GC 1894) [2]: >64 µg/mL
- MIC Streptococcus pneumoniae (GC 4565) [2]: >64 µg/mL
- MIC Streptococcus pyogenes (GC 4563) [2]: >64 µg/mL
- MIC Escherichia coli (ATCC 25922) [3]: >64 µg/mL
- MIC Escherichia coli (GC 4559) [3]: >64 µg/mL
- MIC Escherichia coli (GC 4560) [3]: >64 µg/mL

Compound: CC(c1ccccc1)C1NC(=O)CNC(=O)C(CO)NC(=O)C(C(O)C2CNC(=N)N2C2OC(CO)C(O)C(O)C2O)NC(=O)C(C(O)C2CNC(=N)N2)NC(=O)C(Cc2ccc(O)c(NC=O)c2)NC1=O (stereo not drawn) [Example 18, Cyclo[glycyl-β-methylphenylalanyl-3-formamidotyrosyl-3-(2-iminoimidazolidin-4-yl)seryl-3-(3-hexopyranosyl-2-iminoimidazolidin-4-yl)serylseryl]]
- MIC Enterococcus faecium (GC 4557) ([1]; Enterococcus faecium (GC 4557)): 64 µg/mL (≈ 63.1 µM)
- MIC Enterococcus faecium (GC 4557) [1]: 64 µg/mL (≈ 63.1 µM)
- MIC Streptococcus pneumoniae (GC 1894) ([2]; Streptococcus pneumoniae (GC 1894)): 64 µg/mL (≈ 63.1 µM)
- MIC Streptococcus pneumoniae (GC 1894) [2]: 64 µg/mL (≈ 63.1 µM)
- MIC Escherichia coli (ATCC 25922) [3]: 64 µg/mL (≈ 63.1 µM)
- MIC Escherichia coli (GC 4559) [3]: 32 µg/mL (≈ 31.6 µM)
- MIC Escherichia coli (GC 4560) [3]: 16 µg/mL (≈ 15.8 µM)

Compound: CC(c1ccccc1)C1NC(=O)CNC(=O)C(CO)NC(=O)C(C(O)C2CNC(=N)N2C2OC(CO)C(O)C(O)C2O)NC(=O)C(C(O)C2CNC(=N)N2)NC(=O)C(Cc2ccc3oc(-c4ccccc4OC4OC(CO)C(O)C(O)C4O)nc3c2)NC1=O (centres unmarked) [Example 36]
- MIC Coagulase Negative Staphylococcus (GC 4547) [4]: 64 µg/mL (≈ 51.2 µM)
- MIC Coagulase Negative Staphylococcus (GC 4549) [4]: 64 µg/mL (≈ 51.2 µM)
- MIC Coagulase Negative Staphylococcus (GC 6257) [4]: 64 µg/mL (≈ 51.2 µM)
- MIC Staphylococcus haemolyticus (GC 4546) [4]: 64 µg/mL (≈ 51.2 µM)
- MIC Escherichia coli (GC 4560) [3]: 64 µg/mL (≈ 51.2 µM)
